Reference: article PMC4039129, “Specificity and Promiscuity at the Branch Point in Gentamicin Biosynthesis” (Chemistry & Biology, 2014)

What was measured:
GenB1 [1] = target: T1, GenB1 (Micromonospora echinospora, UniProt Q70KD9); test: UV-visible absorption spectrum; type: binding; settings: co-purified cofactor
T1 construct: gene gacK; N-His6-tagged, pET28a(+), E. coli BL21(DE3); contains PLP

GenB3 = target: T2, GenB3 (Micromonospora echinospora, UniProt Q2MG50); test: UV-visible absorption spectrum; type: binding; settings: co-purified cofactor
T2 construct: N-His6-tagged, pET28a(+), E. coli BL21(DE3); contains PLP
T2 sequence (Q2MG50 entry or part of it): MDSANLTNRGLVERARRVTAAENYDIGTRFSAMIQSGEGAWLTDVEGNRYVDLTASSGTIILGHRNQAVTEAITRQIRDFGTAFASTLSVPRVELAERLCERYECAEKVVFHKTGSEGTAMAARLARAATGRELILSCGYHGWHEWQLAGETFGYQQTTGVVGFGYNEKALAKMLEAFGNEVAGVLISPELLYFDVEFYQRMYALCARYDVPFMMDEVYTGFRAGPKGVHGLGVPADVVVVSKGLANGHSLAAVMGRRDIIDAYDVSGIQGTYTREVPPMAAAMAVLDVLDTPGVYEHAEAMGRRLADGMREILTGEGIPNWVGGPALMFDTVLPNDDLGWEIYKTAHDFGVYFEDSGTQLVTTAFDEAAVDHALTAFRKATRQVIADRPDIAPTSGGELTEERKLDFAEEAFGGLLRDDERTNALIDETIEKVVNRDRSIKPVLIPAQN

GenB2 [2] = target: T3, GenB2 (Micromonospora echinospora, UniProt Q70KE6); test: UV-visible absorption spectrum; type: binding; settings: co-purified cofactor
T3 construct: gene gacE; N-His6-tagged, pET28a(+), E. coli BL21(DE3); contains PLP
T3 sequence (Q70KE6 entry or part of it): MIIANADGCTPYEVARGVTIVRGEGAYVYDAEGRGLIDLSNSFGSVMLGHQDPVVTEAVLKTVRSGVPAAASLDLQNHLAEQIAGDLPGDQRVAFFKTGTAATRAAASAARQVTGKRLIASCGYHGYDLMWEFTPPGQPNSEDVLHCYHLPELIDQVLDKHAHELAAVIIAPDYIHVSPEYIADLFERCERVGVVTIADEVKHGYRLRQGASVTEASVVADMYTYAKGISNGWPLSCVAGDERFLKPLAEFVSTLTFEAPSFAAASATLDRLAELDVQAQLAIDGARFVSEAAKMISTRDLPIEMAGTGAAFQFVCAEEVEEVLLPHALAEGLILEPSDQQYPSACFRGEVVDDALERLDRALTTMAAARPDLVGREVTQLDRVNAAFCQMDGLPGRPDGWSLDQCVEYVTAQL

GenB4 = target: T4, GenB4 (Micromonospora echinospora, UniProt Q6QVT7); test: UV-visible absorption spectrum; type: binding; settings: co-purified cofactor
T4 construct: gene gntH; N-His6-tagged, pET28a(+), E. coli BL21(DE3); contains PLP
T4 sequence (Q6QVT7 entry or part of it): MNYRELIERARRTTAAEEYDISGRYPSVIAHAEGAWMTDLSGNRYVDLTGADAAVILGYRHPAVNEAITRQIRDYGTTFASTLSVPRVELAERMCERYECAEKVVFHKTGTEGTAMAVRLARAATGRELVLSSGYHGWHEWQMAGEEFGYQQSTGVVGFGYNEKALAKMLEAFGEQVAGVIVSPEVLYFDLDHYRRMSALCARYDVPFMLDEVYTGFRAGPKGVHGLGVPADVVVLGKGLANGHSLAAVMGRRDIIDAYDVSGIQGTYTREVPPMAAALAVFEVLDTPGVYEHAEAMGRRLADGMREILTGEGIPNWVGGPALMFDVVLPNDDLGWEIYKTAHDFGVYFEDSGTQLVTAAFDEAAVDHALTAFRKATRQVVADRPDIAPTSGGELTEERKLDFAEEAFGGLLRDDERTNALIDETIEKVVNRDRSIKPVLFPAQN

GenQ (VM_GenQ) = target: T5, GenQ (VM_GenQ) (Micromonospora echinospora, UniProt Q70KE0); test: LC-ESI-MS, […]'-dehydrogenation; type: biochemical; settings: 200 uM substrate, 16 uM enzyme, Tris-HCl pH 8.0, 30 °C overnight
T5 construct: gene gacJ; full length with 38 extra N-terminal residues absent in original annotation; N-His6 tag, pET28a(+), E. coli BL21(DE3); contains FAD
T5 sequence (Q70KE0 entry or part of it): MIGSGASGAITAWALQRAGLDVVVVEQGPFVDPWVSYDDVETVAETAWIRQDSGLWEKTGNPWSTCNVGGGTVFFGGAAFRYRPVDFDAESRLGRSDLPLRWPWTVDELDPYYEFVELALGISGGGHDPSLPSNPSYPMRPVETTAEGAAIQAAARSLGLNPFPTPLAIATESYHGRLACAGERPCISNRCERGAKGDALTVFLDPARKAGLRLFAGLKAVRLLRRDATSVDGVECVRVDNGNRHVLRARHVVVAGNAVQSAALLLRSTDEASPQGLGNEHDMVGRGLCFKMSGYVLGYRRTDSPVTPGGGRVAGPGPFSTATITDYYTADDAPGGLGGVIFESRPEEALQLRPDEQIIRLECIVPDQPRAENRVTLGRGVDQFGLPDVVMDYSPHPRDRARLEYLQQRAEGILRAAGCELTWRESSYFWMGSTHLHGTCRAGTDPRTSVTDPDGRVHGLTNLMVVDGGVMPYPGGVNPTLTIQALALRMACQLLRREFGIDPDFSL

GenB1 [3] = target: T1, GenB1; test: LC-ESI-MS, GenQ-coupled transamination; type: biochemical; settings: amino donor 2 mM; 6'-DOG made in situ from 200 uM G418 by 16 uM GenQ; 20 uM GenB1; Tris-HCl pH 8.0, 30 °C
GenB2 [4] = target: T3, GenB2; test: LC-ESI-MS, […]'-epimerization; type: biochemical; settings: 200 uM substrate, 20 uM enzyme, Tris-HCl pH 8.0, 30 °C overnight; reversible

T1 sequence (Q70KD9 entry or part of it): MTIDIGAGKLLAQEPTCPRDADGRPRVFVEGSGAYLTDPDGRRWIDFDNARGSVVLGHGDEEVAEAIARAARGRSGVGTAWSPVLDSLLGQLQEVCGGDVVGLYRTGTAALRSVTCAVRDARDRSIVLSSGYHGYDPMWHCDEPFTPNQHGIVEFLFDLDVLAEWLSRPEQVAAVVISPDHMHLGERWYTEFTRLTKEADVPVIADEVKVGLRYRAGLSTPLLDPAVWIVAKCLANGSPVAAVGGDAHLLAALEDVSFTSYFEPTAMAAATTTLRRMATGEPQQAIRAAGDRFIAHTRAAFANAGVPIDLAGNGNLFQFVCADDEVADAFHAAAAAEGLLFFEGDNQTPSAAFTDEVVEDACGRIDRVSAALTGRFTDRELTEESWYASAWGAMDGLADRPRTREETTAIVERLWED

For `Cc1ncc(COP(=O)(O)O)c(C=O)c1O` [pyridoxal-5′-phosphate], the UV-visible absorption spectrum (GenB1 [1]) was “UV-visible absorption spectra typical of aminotransferases containing bound pyridoxal-5′-phosphate cofactor”, the UV-visible absorption spectrum (GenB3) was “UV-visible absorption spectra typical of aminotransferases containing bound pyridoxal-5′-phosphate cofactor” and the UV-visible absorption spectrum (GenB2 [2]) was “UV-visible absorption spectra typical of aminotransferases containing bound pyridoxal-5′-phosphate cofactor”. For the same compound, the UV-visible absorption spectrum (GenB4) was “UV-visible absorption spectra typical of aminotransferases containing bound pyridoxal-5′-phosphate cofactor”.
With `CN[C@@H]1[C@@H](O)[C@@H](O[C@@H]2[C@@H](O)[C@H](O[C@H]3O[C@H](CO)[C@@H](O)[C@H](O)[C@H]3N)[C@@H](N)C[C@H]2N)OC[C@]1(C)O` (stereo in doubt) [gentamicin X2] the “LC-ESI-MS, 6'-dehydrogenation” value (GenQ (VM_GenQ)) was “GenQ also showed activity with X2 as the substrate”.
With `CSCC[C@H](N)C(=O)O` [L-methionine] the “LC-ESI-MS, GenQ-coupled transamination” value (GenB1 [3]) was “conversion of G418 to JI-20B, with L-methionine as the most effective amino donor”.
For `CN[C@@H]1[C@@H](O)[C@@H](O[C@@H]2[C@@H](O)[C@H](O[C@H]3O[C@H]([C@H](C)N)CC[C@H]3N)[C@@H](N)C[C@H]2N)OC[C@]1(C)O` [gentamicin C2a], the “LC-ESI-MS, 6'-epimerization” value (GenB2 [4]) was “when C2a was used as the substrate the reverse reaction was also detected”.
With `CN[C@@H]1[C@@H](O)[C@@H](O[C@@H]2[C@@H](O)[C@H](O[C@H]3O[C@H]([C@@H](C)N)CC[C@H]3N)[C@@H](N)C[C@H]2N)OC[C@]1(C)O` [gentamicin C2] the “LC-ESI-MS, 6'-epimerization” value (GenB2 [4]) was “GenB2 did catalyze the epimerization of C2”.
